# Measurements: patent publication US20250034254A1, “USE OF ANTI-PD-1 ANTIBODY IN COMBINATION WITH CHEMOTHERAPY IN TREATING ESOPHAGEAL CANCER” (SHANGHAI JUNSHI BIOSCIENCES CO., LTD., priority 2021, published 2025)
# Columns and labels:
# [1] = tested on: patients with advanced or metastatic esophageal squamous cell carcinoma; test: Phase III clinical study of toripalimab (JS001) or placebo in combination with first-line chemotherapy: efficacy (ITT, RECIST 1.1); format: in vivo, human; conditions: for Objective response rate (ORR) / Objective response rate (ORR), number of subjects: RECIST 1.1; for DCR inter-group difference (95% CI) / ORR inter-group difference (95% CI): JS001 + TP versus Placebo + TP; for Duration of response (DOR), median: patients with BOR of CR or PR
# Text: (§1) This is a randomized, double-blind, placebo-controlled, multicenter, phase III clinical study evaluating the efficacy and safety of toripalimab (JS001) or placebo in combination with first-line chemotherapy in patients with advanced or metastatic esophageal squamous cell carcinoma that are not previously treated with systemic chemotherapy and exploring the population with optimal biomarker prediction.
# Eligible subjects shall meet the following criteria: (1) aged between 18 and 75 years; (2) histologically or pathologically confirmed metastatic or relapsed esophageal squamous cell carcinoma; (3) previously not treated for relapsed or metastatic ESCC; (4) at least one measurable lesion (according to RECIST 1.1); (5) an ECOG score of 0 or 1; (6) normal organ functions.
# (§2) Approximately 514 patients with advanced or metastatic esophageal squamous cell carcinoma were randomized into two groups in a ratio of 1:1, with the treatment group receiving toripalimab in combination with first-line chemotherapy and the control group receiving placebo in combination with first-line chemotherapy. The patients were stratified by ECOG score (0 vs 1) and previous radiotherapy (present vs absence).
# (§3) After randomization, the patients were subject to combination chemotherapy, receiving toripalimab or placebo+first-line chemotherapy for up to 6 cycles. After that, the patients were subject to maintenance therapy, continuously receiving toripalimab or placebo treatment until disease progression, intolerable toxicity, withdrawal from the study or up to 2 years.
# (§4) Toripalimab 240 mg/placebo was administered by intravenous infusion once every three weeks (Q3W) in treatment cycles of 21 days. Treatment continued until the patients met the discontinuation criteria, i.e., recorded disease progression, unacceptable AE, investigator-assessed unsuitability for continued treatment, withdrawal of informed consent, 2 years of JS001 treatment or other reasons as specified in the protocol.
# as §4, with “Toripalimab injection” for “Toripalimab”, “Q3W” for “once every three weeks (Q3W)”, “patient” for “patients”, “AEs,” for “AE,”
# The patients received JS001/placebo+first-line chemotherapy during the combination chemotherapy period (up to 6 cycles). After that, the patients were subject to maintenance monotherapy, continuously receiving JS001/placebo treatment until disease progression, intolerable toxicity, withdrawal from the study or up to 2 years.
# (§5) Intent-to-Treat (ITT) set: including all randomized patients during the primary study period. This analysis set was used as the primary analysis set for efficacy analysis. Per protocol set (PPS): including all ITT population having valid baseline information without major violation to the protocol that may affect the efficacy analysis. The PPS population was determined based on actual protocol violations before database lock of the study. The PPS population was used for sensitivity analysis of the primary efficacy endpoints as well as part of the secondary efficacy endpoints. Safety analysis set (SS): including all patients who received at least one dose of the study drug (JS001/placebo/chemotherapeutic agent).
# Unless otherwise specified, the efficacy analysis was based on the ITT set by treatment. […]
# [2] = Phase III clinical study of toripalimab (JS001) or placebo in combination with first-line chemotherapy: safety (SS population); conditions: human, in vivo
# Text: as §1, §2, §3, §4, §5
# All safety analyses were based on the SS population (514 patients), including 257 patients in the treatment group and 257 patients in the control group. Both groups were sufficiently exposed to JS001+chemotherapy treatment or placebo+chemotherapy treatment. The primary safety analysis results based on the SS population in the double-blind phase of the primary study are as follows: […]
# [3] = BICR-assessed, listed as treatment group
# [4] = ITT, as of Mar. 22, 2021, median follow-up 7.343 months
# [5] = ITT, assessed by the investigator
substance,measurement,setting,value
JS001 + TP: toripalimab 240 mg Q3W in combination with first-line chemotherapy TP (paclitaxel 175 mg/m^2 + cisplatin 75 mg/m^2),6-month DOR,[1]; BICR-assessed,47.4%
same,12-month DOR (1-year DOR rate),[1]; BICR-assessed,28.2%
same,Best overall response: Complete response (CR),[1]; BICR-assessed,(11.7) %
same,"Best overall response: Complete response (CR), number of subjects",[1]; BICR-assessed,30
same,"Best overall response: Not applicable, number of subjects",[1]; BICR-assessed,0
same,"Best overall response: Not evaluable (NE), number of subjects",[1]; BICR-assessed,0
same,Best overall response: Partial response (PR),[1]; BICR-assessed,(57.6) %
same,"Best overall response: Partial response (PR), number of subjects",[1]; BICR-assessed,148
same,Best overall response: Progressive disease (PD),[1]; BICR-assessed,(7.0) %
same,"Best overall response: Progressive disease (PD), number of subjects",[1]; BICR-assessed,18
same,"Best overall response: Stable disease (SD), number of subjects",[1]; BICR-assessed,51
same,Best overall response: non-CR/non-PD,[1]; BICR-assessed,(0.4) %
same,"Best overall response: non-CR/non-PD, number of subjects",[1]; BICR-assessed,1
same,DOR HR (95% CI),[1]; BICR-assessed,"0.58 (0.412, 0.810), P = 0.00136"
same,Disease control rate (DCR),[1]; BICR-assessed,89.1%
same,"Disease control rate (DCR), number of subjects",[1]; BICR-assessed,229
same,Objective response rate (ORR),[1]; BICR-assessed,69.3%
same,"Objective response rate (ORR), number of subjects",[1]; BICR-assessed,178
same,DCR inter-group difference (95% CI),[1]; BICR-assessed,"7.1 (1.1, 13.1) %"
same,ORR inter-group difference (95% CI),[1]; BICR-assessed,"17.2 (9.0, 25.4) %"
same,ORR inter-group difference (95% CI),[1]; [3],17.2%
same,DOR HR (95% CI),[1]; [3],0.58
same,"Duration of response (DOR), median",[1]; BICR-assessed,5.6 month
same,PFS subpopulation analysis,"[1]; BIRC, ECOG score, previous radiotherapy, disease stage, PD-L1 expression, 11q13, TMB subpopulations",superiority in PFS
same,OS subpopulation analysis,"[1]; ECOG score, previous radiotherapy, disease stage, PD-L1 expression, 11q13, TMB subpopulations",superiority in OS
same,"OS hazard ratio (HR), treatment vs control group",[1]; ITT population,0.58
same,median OS,[1]; ITT population,17.0 months
same,prolongation of median OS versus chemotherapy,[1]; ITT population,6 months
same,reduction of death hazard versus chemotherapy,[1]; ITT population,42%
same,"deaths reported, % of patients",[1]; [4],27.2%
same,"deaths reported, number of patients",[1]; [4],70
same,1-year PFS rate,"[1]; ITT, assessed by BIRC",27.8%
same,"PFS hazard ratio (HR), treatment vs control group","[1]; ITT, assessed by BIRC",0.58
same,reduction of progression or death hazard versus chemotherapy,"[1]; ITT, assessed by BIRC",42%
same,median PFS,"[1]; ITT, assessed by BIRC based on RECIST 1.1",5.7 months
same,"PFS hazard ratio (HR), treatment vs control group",[1]; [5],0.58
same,reduction of progression or death hazard versus chemotherapy,[1]; [5],42%
same,median PFS,"[1]; ITT, assessed by the investigator based on RECIST 1.1",7.0 months
same,6-month DOR,[1]; Investigator-assessed,55.6%
same,12-month DOR,[1]; Investigator-assessed,30.9%
same,Best overall response: Complete response (CR),[1]; Investigator-assessed,(5.1) %
same,"Best overall response: Complete response (CR), number of subjects",[1]; Investigator-assessed,13
same,"Best overall response: Not evaluable (NE), number of subjects",[1]; Investigator-assessed,0
same,Best overall response: Partial response (PR),[1]; Investigator-assessed,(67.3) %
same,"Best overall response: Partial response (PR), number of subjects",[1]; Investigator-assessed,173
same,Best overall response: Progressive disease (PD),[1]; Investigator-assessed,(3.9) %
same,"Best overall response: Progressive disease (PD), number of subjects",[1]; Investigator-assessed,10
same,"Best overall response: Stable disease (SD), number of subjects",[1]; Investigator-assessed,52
same,DOR HR (95% CI),[1]; Investigator-assessed,"0.50 (0.359, 0.684), P = 0.00001"
same,Disease control rate (DCR),[1]; Investigator-assessed,92.6%
same,"Disease control rate (DCR), number of subjects",[1]; Investigator-assessed,238
same,Objective response rate (ORR),[1]; Investigator-assessed,72.4%
same,"Objective response rate (ORR), number of subjects",[1]; Investigator-assessed,186
same,DCR inter-group difference (95% CI),[1]; Investigator-assessed,"5.5 (0.3, 10.7) %"
same,ORR inter-group difference (95% CI),[1]; Investigator-assessed,"14.1 (6.0, 22.2) %"
same,ORR inter-group difference (95% CI),"[1]; Investigator-assessed, listed as treatment group",14%
same,"Duration of response (DOR), median",[1]; Investigator-assessed,4.2 month
same,prolongation of DOR over the control group,[1]; assessed by BIRC,1.4 months
same,SAE: anemia,[2],1.2%
same,SAE: asthenia,[2],1.2%
same,SAE: bone marrow depression,[2],1.2%
same,SAE: decreased leukocyte count,[2],2.3%
same,SAE: decreased neutrophil count,[2],1.6%
same,SAE: decreased platelet count,[2],1.6%
same,SAE: dysphagia,[2],1.2%
same,SAE: infectious pneumonitis,[2],5.1%
same,SAE: vomiting,[2],8.9%
same,TEAE: alopecia,[2],35.4%
same,TEAE: anemia,[2],77.0%
same,TEAE: asthenia,[2],41.6%
same,TEAE: constipation,[2],24.1%
same,TEAE: decreased appetite,[2],39.3%
same,TEAE: decreased leukocyte count,[2],67.7%
same,TEAE: decreased neutrophil count,[2],66.9%
same,TEAE: decreased platelet count,[2],28.4%
same,TEAE: diarrhea,[2],23.0%
same,TEAE: nausea,[2],42.8%
same,TEAE: vomiting,[2],40.1%
same,TEAE: weight loss,[2],28.8%
same,"immune-related adverse events (irAEs), % of patients",[2],37%
same,"immune-related adverse events (irAEs), number of patients",[2],95
same,irAE resulting in death,[2],no irAE resulting in death was reported
same,"irAEs of grade 3 or higher, % of subjects",[2],6.6%
same,"irAEs of grade 3 or higher, number of subjects",[2],17
same,proportion of SAEs of grade 3 or higher as per CTCAE,[2],30.0%
same,proportion of TEAEs of grade 3 or higher as per CTCAE,[2],73.2%
same,proportion of patients who experienced at least 1 TEAE,[2],99.2%
same,proportion of treatment-emerged SAEs,[2],36.2%
